ChEMBL document CHEMBL1201862, “PubChem BioAssay data set” (2004)
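Assay format: 96-well plates, 48-hour exposure. GI50: concentration for 50% inhibition of growth.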 Calls of active or inactive are those of the source. No stated cut-off is given here; in the data, active = GI50 up to about 1.1 µM and inactive = higher.

Columns and labels:
Test in all cases: NCI tumour cell line growth inhibition, 48 h
[1] = test system: HOP-92
[2] = test system: M14
[3] = test system: U-251
[4] = test system: NCI/ADR-RES
[5] = test system: SK-OV-3
[6] = test system: MDA-N
[7] = test system: CAKI-1
[8] = test system: TK-10
[9] = test system: OVCAR-3
[10] = test system: SNB-19
[11] = test system: UACC-62
[12] = test system: PC-3
[13] = test system: Hs-578T
[14] = test system: Malme-3M
[15] = test system: A498
[16] = test system: MDA-MB-231
[17] = test system: SK-MEL-2
[18] = test system: CCRF-CEM
[19] = test system: SW-620
[20] = test system: MDA-MB-435
[21] = test system: COLO 205
[22] = test system: NCI-H226
[23] = test system: SK-MEL-5
[24] = test system: NCI-H522
[25] = test system: LOX IMVI
[26] = test system: DU-145
[27] = test system: SF-268
[28] = test system: SK-MEL-28
[29] = test system: ACHN
[30] = test system: T47D
[31] = test system: A549
[32] = test system: HCT-116
[33] = test system: RPMI-8226
[34] = test system: UACC-257
[35] = test system: MCF7
[36] = test system: IGROV-1
[37] = test system: K562
[38] = test system: HCT-15
[39] = test system: SF-539
[40] = test system: OVCAR-4
[41] = test system: EKVX
[42] = test system: MOLT-4
[43] = test system: 786-0
[44] = test system: SR
[45] = test system: HT-29
[46] = test system: SF-295
[47] = test system: OVCAR-8
[48] = test system: HOP-62
[49] = test system: NCI-H460
[50] = test system: SN12C
[51] = test system: OVCAR-5
[52] = test system: NCI-H23
[53] = test system: SNB-75
[54] = test system: HL-60
[55] = test system: KM12
[56] = test system: UO-31

In the case of `Cc1nc(=O)n2c(c1C(=O)Nc1ccc(Cl)cc1)NCC2`, the GI50 [1] is reported as 47.8 µM (inactive).
With `CC(C)(Br)C(=O)/C=C/c1ccccc1` the GI50 [2] was 1.56 µM (inactive), the GI50 [3] was 6.95 µM (inactive) and the GI50 [4] was 17.6 µM (inactive). For the same molecule, the GI50 [5] was 25.6 µM (inactive), the GI50 [6] was 3.5 µM (inactive) and the GI50 [7] was 6.12 µM (inactive). The GI50 [8] was 10.6 µM (inactive), the GI50 [9] was 8.17 µM (inactive) and the GI50 [10] was 22 µM (inactive). The GI50 [11] was 5.73 µM (inactive), the GI50 [12] was 7.69 µM (inactive) and the GI50 [13] was 11.5 µM (inactive). The GI50 [14] was 2.62 µM (inactive), the GI50 [15] was 18.7 µM (inactive) and the GI50 [16] was 8.79 µM (inactive). For the same molecule, the GI50 [17] was 1.83 µM (inactive), the GI50 [18] was 0.22 µM (active) and the GI50 [19] was 2.39 µM (inactive). The GI50 [20] was 5.46 µM (inactive), the GI50 [21] was 8.24 µM (inactive) and the GI50 [22] was 5 µM (inactive). The GI50 [23] was 11.6 µM (inactive), the GI50 [24] was 0.136 µM (active) and the GI50 [1] was 4.35 µM (inactive). For the same molecule, the GI50 [25] was 1.32 µM (inactive), the GI50 [26] was 5.71 µM (inactive) and the GI50 [27] was 10.6 µM (inactive). The GI50 [28] was 14.9 µM (inactive), the GI50 [29] was 2.55 µM (inactive) and the GI50 [30] was 2.47 µM (inactive). The GI50 [31] was 14.8 µM (inactive), the GI50 [32] was 0.625 µM (active) and the GI50 [33] was 0.925 µM (active). For the same molecule, the GI50 [34] was 14.1 µM (inactive), the GI50 [35] was 3.56 µM (inactive) and the GI50 [36] was 0.581 µM (active). The GI50 [37] was 1.55 µM (inactive), the GI50 [38] was 1.97 µM and the GI50 [39] was 8.13 µM (inactive). For the same molecule, the GI50 [40] was 2.3 µM (inactive), the GI50 [41] was 7.62 µM (inactive) and the GI50 [42] was 1.41 µM (inactive). The GI50 [43] was 0.485 µM (active), the GI50 [44] was 1.98 µM (inactive) and the GI50 [45] was 4.23 µM (inactive). For the same molecule, the GI50 [46] was 16.8 µM (inactive), the GI50 [47] was 2.13 µM (inactive) and the GI50 [48] was 4.58 µM (inactive). For the same molecule, the GI50 [49] was 16.3 µM (inactive), the GI50 [50] was 6.21 µM (inactive) and the GI50 [51] was 6.56 µM (inactive). The GI50 [52] was 1.94 µM (inactive), the GI50 [53] was 16.1 µM (inactive) and the GI50 [54] was 3.91 µM (inactive). For the same molecule, the GI50 [55] was 13.1 µM (inactive) and the GI50 [56] was 1.84 µM (inactive).
